Experimental data taken from ChEMBL document CHEMBL2007661, “Compounds: GSK PKIS; Assays: UNC Frye lab” (2012).
“And” between values parts separate entries of the source, which are not always exact repeats. Equal entries are not always repeated.

Key:
[1] = target: T1, Inhibitor of nuclear factor kappa-B kinase subunit beta (Homo sapiens) (UniProt O14920); conditions: at 1 µM
T1 sequence (whole entry): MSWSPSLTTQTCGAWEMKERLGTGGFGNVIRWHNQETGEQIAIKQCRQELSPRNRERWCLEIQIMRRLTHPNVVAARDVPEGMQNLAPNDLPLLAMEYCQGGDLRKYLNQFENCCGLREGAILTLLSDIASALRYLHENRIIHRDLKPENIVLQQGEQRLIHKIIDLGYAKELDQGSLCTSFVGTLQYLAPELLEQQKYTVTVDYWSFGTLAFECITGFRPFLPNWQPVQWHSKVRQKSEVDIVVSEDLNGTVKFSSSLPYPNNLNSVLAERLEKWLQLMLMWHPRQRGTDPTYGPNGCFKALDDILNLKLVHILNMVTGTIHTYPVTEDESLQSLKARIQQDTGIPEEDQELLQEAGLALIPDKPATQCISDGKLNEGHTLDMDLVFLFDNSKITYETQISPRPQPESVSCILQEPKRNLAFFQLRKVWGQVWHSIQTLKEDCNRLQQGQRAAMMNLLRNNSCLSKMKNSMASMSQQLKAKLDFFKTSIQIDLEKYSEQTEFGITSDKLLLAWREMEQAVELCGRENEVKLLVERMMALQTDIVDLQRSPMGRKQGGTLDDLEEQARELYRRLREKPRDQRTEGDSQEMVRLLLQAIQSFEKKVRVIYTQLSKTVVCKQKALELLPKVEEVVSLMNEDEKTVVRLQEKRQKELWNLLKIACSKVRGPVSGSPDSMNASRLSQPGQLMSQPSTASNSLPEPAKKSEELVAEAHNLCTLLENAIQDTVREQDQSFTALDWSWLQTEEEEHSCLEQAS

[2] = target: T2, Serine/threonine-protein kinase TBK1 (Homo sapiens) (UniProt Q9UHD2); conditions: at 1 µM
T2 sequence (whole entry): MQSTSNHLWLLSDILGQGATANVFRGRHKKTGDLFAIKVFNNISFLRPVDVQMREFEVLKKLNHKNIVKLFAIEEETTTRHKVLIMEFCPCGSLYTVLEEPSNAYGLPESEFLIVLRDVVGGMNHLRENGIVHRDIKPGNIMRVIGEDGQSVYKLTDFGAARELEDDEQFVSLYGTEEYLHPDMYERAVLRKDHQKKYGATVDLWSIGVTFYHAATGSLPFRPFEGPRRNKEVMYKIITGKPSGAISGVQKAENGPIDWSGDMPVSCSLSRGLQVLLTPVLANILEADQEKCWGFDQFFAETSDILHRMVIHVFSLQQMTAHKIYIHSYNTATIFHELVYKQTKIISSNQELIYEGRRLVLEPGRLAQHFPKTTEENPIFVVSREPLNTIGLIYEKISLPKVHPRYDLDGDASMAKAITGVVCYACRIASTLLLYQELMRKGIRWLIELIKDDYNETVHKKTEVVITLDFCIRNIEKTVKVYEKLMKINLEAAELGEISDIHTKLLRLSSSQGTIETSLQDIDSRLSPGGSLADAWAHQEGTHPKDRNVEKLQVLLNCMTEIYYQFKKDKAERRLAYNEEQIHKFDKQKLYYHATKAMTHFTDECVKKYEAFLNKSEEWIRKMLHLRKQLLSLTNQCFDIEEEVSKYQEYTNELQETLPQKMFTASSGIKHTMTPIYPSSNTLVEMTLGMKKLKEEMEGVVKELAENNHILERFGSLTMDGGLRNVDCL

[3] = target: T3, Inhibitor of nuclear factor kappa-B kinase subunit alpha (Homo sapiens) (UniProt O15111); conditions: at 1 µM
T3 sequence (whole entry): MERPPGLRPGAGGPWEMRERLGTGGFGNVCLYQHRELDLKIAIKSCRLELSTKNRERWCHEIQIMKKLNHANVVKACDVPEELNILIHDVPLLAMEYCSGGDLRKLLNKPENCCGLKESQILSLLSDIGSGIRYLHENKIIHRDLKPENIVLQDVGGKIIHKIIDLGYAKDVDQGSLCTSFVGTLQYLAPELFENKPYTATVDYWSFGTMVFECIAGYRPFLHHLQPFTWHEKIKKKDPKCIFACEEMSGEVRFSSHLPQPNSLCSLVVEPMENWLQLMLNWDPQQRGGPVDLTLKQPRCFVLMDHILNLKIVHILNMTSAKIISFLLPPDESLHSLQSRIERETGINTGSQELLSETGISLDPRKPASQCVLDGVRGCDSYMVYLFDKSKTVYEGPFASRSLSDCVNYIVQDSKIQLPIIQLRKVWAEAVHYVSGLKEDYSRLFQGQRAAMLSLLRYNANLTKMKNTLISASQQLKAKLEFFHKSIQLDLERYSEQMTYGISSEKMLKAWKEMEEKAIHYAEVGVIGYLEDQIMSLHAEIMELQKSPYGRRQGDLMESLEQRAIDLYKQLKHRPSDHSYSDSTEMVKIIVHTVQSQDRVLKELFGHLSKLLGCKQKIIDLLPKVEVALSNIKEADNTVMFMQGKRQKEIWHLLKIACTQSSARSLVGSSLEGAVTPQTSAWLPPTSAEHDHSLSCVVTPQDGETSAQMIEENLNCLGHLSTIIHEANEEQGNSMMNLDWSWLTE

[4] = target: T4, Inhibitor of nuclear factor kappa-B kinase subunit epsilon (Homo sapiens) (UniProt Q14164); conditions: at 1 µM
T4 sequence (whole entry): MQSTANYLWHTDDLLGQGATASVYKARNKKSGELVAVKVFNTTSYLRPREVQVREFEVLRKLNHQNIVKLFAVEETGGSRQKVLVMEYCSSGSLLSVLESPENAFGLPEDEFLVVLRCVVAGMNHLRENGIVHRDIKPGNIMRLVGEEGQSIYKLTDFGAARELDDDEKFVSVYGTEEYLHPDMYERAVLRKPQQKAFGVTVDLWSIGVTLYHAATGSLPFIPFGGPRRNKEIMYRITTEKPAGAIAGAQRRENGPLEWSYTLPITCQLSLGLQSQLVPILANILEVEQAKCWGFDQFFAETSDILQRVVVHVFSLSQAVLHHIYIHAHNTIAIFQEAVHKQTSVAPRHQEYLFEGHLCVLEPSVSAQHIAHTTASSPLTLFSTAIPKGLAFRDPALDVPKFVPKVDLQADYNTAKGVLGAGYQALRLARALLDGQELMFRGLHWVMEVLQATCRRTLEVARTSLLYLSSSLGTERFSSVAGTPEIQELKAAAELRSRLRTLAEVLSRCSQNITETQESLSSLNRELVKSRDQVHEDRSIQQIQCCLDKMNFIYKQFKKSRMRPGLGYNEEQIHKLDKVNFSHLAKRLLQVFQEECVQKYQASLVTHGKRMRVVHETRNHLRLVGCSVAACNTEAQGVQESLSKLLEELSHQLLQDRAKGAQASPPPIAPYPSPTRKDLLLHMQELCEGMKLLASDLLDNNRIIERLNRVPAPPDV

[5] = target: T5, Tyrosine-protein kinase Mer (Homo sapiens) (UniProt Q12866); conditions: at 10 µM
T5 sequence (whole entry): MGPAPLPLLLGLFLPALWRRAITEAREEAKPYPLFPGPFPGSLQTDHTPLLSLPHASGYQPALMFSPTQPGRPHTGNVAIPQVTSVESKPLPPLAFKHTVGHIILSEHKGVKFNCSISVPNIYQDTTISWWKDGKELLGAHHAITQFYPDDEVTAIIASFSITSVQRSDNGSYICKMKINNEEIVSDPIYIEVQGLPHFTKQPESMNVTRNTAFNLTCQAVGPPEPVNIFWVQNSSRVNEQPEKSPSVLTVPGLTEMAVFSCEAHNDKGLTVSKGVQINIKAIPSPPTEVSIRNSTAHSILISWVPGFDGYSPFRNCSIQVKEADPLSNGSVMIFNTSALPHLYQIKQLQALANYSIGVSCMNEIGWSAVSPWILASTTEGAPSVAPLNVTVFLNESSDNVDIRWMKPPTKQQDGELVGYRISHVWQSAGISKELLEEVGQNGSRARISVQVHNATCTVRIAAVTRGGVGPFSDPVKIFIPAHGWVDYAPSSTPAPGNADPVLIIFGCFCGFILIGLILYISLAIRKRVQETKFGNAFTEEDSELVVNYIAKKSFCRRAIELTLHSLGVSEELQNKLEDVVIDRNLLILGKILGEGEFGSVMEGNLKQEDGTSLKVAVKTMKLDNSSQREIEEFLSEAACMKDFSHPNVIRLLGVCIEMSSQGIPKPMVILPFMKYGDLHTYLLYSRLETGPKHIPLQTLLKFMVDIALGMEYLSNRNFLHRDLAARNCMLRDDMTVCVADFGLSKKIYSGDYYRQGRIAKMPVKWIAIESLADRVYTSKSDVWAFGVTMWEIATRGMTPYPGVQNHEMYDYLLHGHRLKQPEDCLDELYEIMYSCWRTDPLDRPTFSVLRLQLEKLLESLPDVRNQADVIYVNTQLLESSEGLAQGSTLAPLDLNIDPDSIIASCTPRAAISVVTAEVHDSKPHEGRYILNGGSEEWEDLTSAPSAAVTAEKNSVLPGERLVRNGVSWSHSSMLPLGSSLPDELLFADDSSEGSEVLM

| SMILES | inhibition [1] | inhibition [2] | inhibition [3] | inhibition [4] | inhibition [5] [%] |
| --- | --- | --- | --- | --- | --- |
| O=C(Nc1n[nH]c2nc(-c3ccco3)ccc12)C1CC1 | -6% | 4% and 3% | 7% and 6% | 0% | – |
| c1cc(-c2cnn3nc(N4CCOCC4)ccc23)nc(NC2CC2)n1 | – | 5% and 6% | -2% and -3% | 5% and 6% | -4 |
| N#Cc1cccc(Nc2nccc(-c3cnn4ncccc34)n2)c1 | -4% and 0% | 37% and 39% | -9% | 35% and 37% | – |
| [O-][S+]1CCN(Cc2ccc(-c3ccc4ncnc(Nc5ccc(OCc6ccccc6)c(F)c5)c4c3)o2)CC1 | -4% and -10% | 5% and 2% | 5% | 1% | – |
| C[C@@H](Oc1cc(-n2cnc3ccc(OCC4CCN(C)CC4)cc32)sc1C(N)=O)c1ccccc1Cl | – | 6% and 8% | -10% and 3% | 3% | 55 |
| CCn1c(-c2nonc2N)nc2cnc(Oc3cccc(NC(=O)c4ccc(OCCN5CCOCC5)cc4)c3)cc21 | 3% | 12% | – | 45% and 46% | 10 |
| CNC(=O)c1cncc(/C=C/c2c(Cl)cccc2Cl)c1 | -3% and -2% | 0% and -1% | – | 0% and 1% | 3 |
| Cc1ccc(NC(=O)CC2CC2)cc1-c1ccc(C(=O)NCC2CC2)cc1 | -2% and -1% | -1% and 1% | 1% and 0% | 0% | – |
| COc1cccc(Nc2nccc(-c3cnn4ncccc34)n2)c1 | – | 24% and 31% | 0% and 2% | 11% and 20% | 98 |
| Fc1ccc(-c2nn3ncccc3c2-c2ccnc(Nc3ccc4c(c3)OCCO4)n2)cc1 | -2% and -4% | 4% and -2% | – | 12% and 9% | – |
| Nc1nccc(-c2c(-c3ccc(F)cc3)ncn2C2CCNCC2)n1 | -4% and -5% | 0% [middle of 4 runs] | 4% (2×) and 5% and 3% | 1% [middle of 4 runs] | – |

Results, then the molecule that gave them:

| inhibition [1] | inhibition [2] | inhibition [3] | inhibition [4] | inhibition [5] [%] | SMILES |
| --- | --- | --- | --- | --- | --- |
| -7% and -4% | -1% (2×) and 2% and 1% | 2% [middle of 4 runs] | 12% [middle of 4 runs] | – | Nc1ncnc2occ(-c3ccc(NC(=O)Nc4cc(C(F)(F)F)ccc4F)cc3)c12 |
| -4% and -5% | 85% and 86% | -3% and -2% | -8% and -9% | – | NS(=O)(=O)c1ccc(N/C=C2\C(=O)Nc3ccc4ncsc4c32)cc1 |
| -4% and -8% | -5% and -3% | 5% and 4% | -4% and -6% | – | COC(=O)Nc1nc2ccc(Oc3ccc(NC(=O)Nc4cc(C(F)(F)F)ccc4F)cc3)cc2s1 |
| 2% and 1% | 16% and 21% | – | 2% and 0% | 22 | NC(=O)c1cc(-c2ccc(F)cc2)cc(-c2ccncc2)c1N |
| -2% and -1% | 3% and 0% | – | 0% and 1% | 4 | Cc1cccc2c1NC(=O)/C2=N\Nc1ccc(S(N)(=O)=O)cc1 |
| – | -2% and -3% | 50% | 0% and 1% | -9 | Clc1ccc(-c2nn3ncccc3c2-c2ccnc(Nc3ccccc3)n2)cc1 |
| – | 8% and 7% | 2% and 17% | 0% and 2% | 73 | CCS(=O)(=O)c1ccc(OC)c(Nc2ncc(-c3cccc(F)c3)o2)c1 |
| 3% and 2% | 0% and -4% | 60% and 64% | -1% | – | Fc1cccc(COc2ccc(Nc3ncnc4cc(-c5ccc[nH]5)sc34)cc2Cl)c1 |
| – | -5% and -1% | 5% and 4% | 0% | -10 | CC(C)c1ccc2c(c1)NC(=O)/C2=N/Nc1ccc(S(N)(=O)=O)cc1 |
| – | 7% and 5% | -1% | 1% | 65 | CCS(=O)(=O)c1ccc(OC)c(Nc2ncc(-c3cccc(C(C)=O)c3)o2)c1 |
